pIC50: −log10 of the molar value.
biological target: T1, Amine oxidase [copper-containing] 3 (Homo sapiens, UniProt Q16853); assay: Biological Assay: 1. Determination of Inhibitory Activity of Human Recombinant SSAO/VAP-1Test purpose: The following methods can be used to determine the inhibitory activity of the compounds described in the examples of the invention for human recombinant SSAO/VAP-1.Test Materials:Human recombinant SSAO/VAP-1 (VAP-1, human) purchased from Sigma, Cat. No. SRP6241;Amplex® Red Monoamine Oxidase Assay Kit purchased from Invitrogen, Cat. No. A12214;384-Well plate purchased from Corning, Cat. No. 6005174;Amplex® Red Hydrogen PeroxidePeroxidase Assay Kit purchased from Invitrogen, Cat. No. A22188.Benzylamine hydrochloride purchased from Sigma, Cat. No. B5136-25G;DMSO (Dimethyl Sulfoxide) purchased from Sigma, Cat. No. D2650-100ML;Test Method:The test compound was dissolved in DMSO and diluted to 10 concentrations in 4-fold serial dilution. In 384 well plates, 25 μL of human recombinant SSAO/VAP-1 (1.6 μg/ml) was added to each well. 100 nL of test compounds with different concentrations were added to each well containing human recombinant SSAO/VAP-1 and incubated at room temperature for 30 min. After 30 min incubation, 25 μl of Amplex® red monoamine oxidase assay kit (containing a reaction mixture of 200 μm Amplex Red reagent, 1 U/ml HRP and 1 mm benzylamine hydrochloride) was added to the corresponding well, and incubated at room temperature and dark for 60 min. After 60 min, the relative fluorescence unit (RFU) was read by using PerkinElmer's Envision at 530-560 nm excitation and 590 nm emission. The curve was drawn by using the graph pad prism 5 software, and the IC50 value was calculated. The results were shown in table 1, wherein the compound listed in table 1 is the compound in the preparation examples with the same compound number:
T1 sequence (Q16853 whole entry): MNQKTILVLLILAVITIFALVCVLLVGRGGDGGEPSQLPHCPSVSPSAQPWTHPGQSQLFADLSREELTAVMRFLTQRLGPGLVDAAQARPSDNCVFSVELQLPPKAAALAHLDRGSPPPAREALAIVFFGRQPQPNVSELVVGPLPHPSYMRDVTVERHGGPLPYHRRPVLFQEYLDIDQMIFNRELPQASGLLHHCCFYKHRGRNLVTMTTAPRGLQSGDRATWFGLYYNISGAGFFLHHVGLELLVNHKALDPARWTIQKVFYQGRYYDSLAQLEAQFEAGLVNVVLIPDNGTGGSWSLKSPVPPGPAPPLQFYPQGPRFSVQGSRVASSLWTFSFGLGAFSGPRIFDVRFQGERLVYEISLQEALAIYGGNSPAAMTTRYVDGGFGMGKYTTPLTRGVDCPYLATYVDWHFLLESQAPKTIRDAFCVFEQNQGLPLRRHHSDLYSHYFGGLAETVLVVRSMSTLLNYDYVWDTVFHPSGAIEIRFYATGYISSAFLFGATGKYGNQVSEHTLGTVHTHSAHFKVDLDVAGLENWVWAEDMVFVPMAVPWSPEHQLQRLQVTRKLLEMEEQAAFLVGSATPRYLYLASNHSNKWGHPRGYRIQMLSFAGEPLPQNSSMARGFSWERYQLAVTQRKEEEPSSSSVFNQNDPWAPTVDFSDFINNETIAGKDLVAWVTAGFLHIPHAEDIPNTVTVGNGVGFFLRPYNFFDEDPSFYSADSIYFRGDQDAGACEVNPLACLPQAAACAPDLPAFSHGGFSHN

Structure (SMILES) | pIC50
NC/C(=C\F)COc1ccc2c(c1)CCN(CC1CCOCC1)C2=O | 9.66
COc1ncc(N2CCc3cc(OC/C(=C/F)CN)ccc3C2=O)cn1 | 8.84
NC/C(=C/F)COc1ccc2c(c1)CCN(c1ccccn1)C2=O | 9.11

— ChEMBL document CHEMBL5729211, “Amine compound for inhibiting SSAO/VAP-1 and use thereof” (2022)
